Results from patent publication US20100272831A1, “PROCESS FOR MANUFACTURING NANOCOMPOSITE MATERIALS FOR MULTISECTORAL APPLICATIONS” (NANOBIOMATTERS, S.L., priority 2005, published 2010).

assay: Interlayer (basal) spacing of kaolinite clay treated with expansive-type precursors/modifiers; type: physicochemical; details: not given
Text: The penetration of the precursors is accelerated by means of the use of temperature, a turbulent regime homogenizer, ultrasound, pressure or a combination thereof. They can be dried by evaporation in a stove, lyophilization, centrifugation processes and/or gravimetric processes in solution or turbo-drying processes or by atomization processes.
In this example the modification process consists of a first step in which the purified kaolinite and montmorillonite clay fining agents are pretreated with an ethanol/water 50/50 (v/v) mixture at 50° C. This process was carried out together with an ultrasonic stirring treatment process for 1 hour and with stirring with a homogenizer for 2 hours to favor the intercalation of the precursor in the clay. The solvent was then removed by means of lyophilization and/or evaporation. […]

| Compound | dMODIFIER |
| --- | --- |
| CC(=O)[O-].[K+] [Potassium acetate] | 1.39 nm |
| FC(F)=C(F)F [Tetrafluoroethylene] | 0.98 nm |

same assay, conditions: kaolinite of Table 1; spacing of the clay with the named modifier

| Compound | dMODIFIER |
| --- | --- |
| CC=O [Acetaldehyde] | 0.91 nm |
| CC(N)=O [Acetamide] | 1.09 nm |
| CC(=O)O [Acetic acid] | 1.10 nm |
| O=C(O)CCCCC(=O)O [Adipic acid] | 1.03 nm |
| NN [Anhydrous hydrazine] | 0.96 nm |
| C=CC(N)=O [Archylamide] | 1.14 nm |
| CCCC(=O)O [Butyric acid] | 1.01 nm |
| O=C1CCCCCN1 [Caprolactam] | 1.18 nm |
| C[S+](C)[O-] [Dimethyl sulfoxide (DMSO), Dimethyl sulfoxide] | 1.11 nm |
| C1CCCCC1 [Hexamethylene] | 1.02 nm |
| CCCCCC(=O)O [Hexanoic acid] | 1.23 nm |
| NN.O [Hydrated hydrazine] | 1.03 nm |
| CC(O)C(=O)O (stereo not drawn) [Lactic acid] | 1.08 nm |
| O=C(O)/C=C\C(=O)O [Maleic acid] | 1.20 nm |
| O=C1C=CC(=O)O1 [Maleic anhydride] | 1.20 nm |
| CNC=O [N-methyl formamide (NMF), N-methyl formamide] | 1.02 nm |
| O=C(O)c1ccccc1O [Salicylic acid] | 1.07 nm |
| O=C(OC[C@H]1O[C@@H](OC(=O)c2cc(O)c(O)c(OC(=O)c3cc(O)c(O)c(O)c3)c2)[C@H](OC(=O)c2cc(O)c(O)c(OC(=O)c3cc(O)c(O)c(O)c3)c2)[C@@H](OC(=O)c2cc(O)c(O)c(OC(=O)c3cc(O)c(O)c(O)c3)c2)[C@@H]1OC(=O)c1cc(O)c(O)c(OC(=O)c2cc(O)c(O)c(O)c2)c1)c1cc(O)c(O)c(OC(=O)c2cc(O)c(O)c(O)c2)c1 [Tannic acid] | 1.09 nm |
| C=COC(C)=O [Vinyl acetate] | 1.21 nm |
| O [Water] | 0.78 nm |
| Manganese acetate | 1.41 nm |

assay: Interlayer (basal) spacing of montmorillonite clay treated with expansive-type precursors/modifiers; type: physicochemical; details: not given

| Compound | dMODIFIER |
| --- | --- |
| OCCO [Ethylene glycol] | 0.95 nm |

same assay, conditions: montmorillonite; spacing of the clay with the named modifier

| Compound | dMODIFIER |
| --- | --- |
| CC(O)CO (stereo not drawn) [1,2-Propanediol] | 1.09 nm |
| OCCCO [1,3-Propanediol] | 0.98 nm |
| OC[C@@H](O)[C@@H](O)[C@@H](O)CO [Adonitol] | 1.04 nm |
| OCCOCCO [Diethylene glycol] | 1.04 nm |
| OCC(O)CO [Glycerol] | 1.02 nm |
| O=C(O)CO [Glycolic acid] | 1.06 nm |
| CC(O)CO (stereo not drawn) [Propylene glycol] | 1.01 nm |
| OC[C@@H](O)[C@H]1OC[C@H](O)[C@H]1O [Sorbitan] | 1.09 nm |
| OC[C@@H](O)[C@@H](O)[C@H](O)[C@@H](O)CO [Sorbitol] | 1.19 nm |
| OCCOCCOCCO [Triethylene glycol] | 1.08 nm |
| C=CN1CCCC1=O [Vinyl pyrrolidone] | 1.23 nm |
| Calcium butyrate | 0.92 nm |
| Manganese butyrate | 0.95 nm |
| Sucrose acetoisobutyrate | 1.08 nm |
| Vinyl versatate | 1.11 nm |
